The values below come from patent publication US9480677B2, “Enantiomers of spiro-oxindole compounds and their uses as therapeutic agents” (Xenon Pharmaceuticals Inc., priority 2009, dated 2016).

The experiment deals with CFA induced chronic inflammatory pain. The experiment is described as follows: CFA induced chronic inflammatory pain, von Frey tactile allodynia. It is filed as in vivo, rats. The following applies: for % Increase From Base Line, 8% topical: 8% (w/v) topical. As to the method:
In this test, tactile allodynia is assessed with calibrated von Frey filaments. […] Animals were allowed to recover from the anaesthesia and the baseline thermal and mechanical nociceptive thresholds of all animals were assessed one week after the administration of CFA. All animals were habituated to the experimental equipment for 20 minutes on the day prior to the start of the experiment. The test and control articles were administrated to the animals, and the nociceptive thresholds were measured at defined time points after drug administration to determine the analgesic responses to each of the six available treatments. The time points used were previously determined to show the highest analgesic effect for each test compound. […] Each enantiomer was dosed at 10, 30, 100 or 200 mg/Kg. The plasma concentration achieved with each dose was also determined and the reversal of pain response (as the % increase from baseline threshold) is plotted as a function of plasma concentration. The (S)-enantiomer of the invention was also administered topically to the animals in varying dosages (1%, 2%, 4% and 8% (w/v)) and the nociceptive thresholds measured at defined time points after drug administration to determine the analgesic responses to each of the available treatments. The time points used were previously determined to show the highest analgesic effect for each test compound. The response thresholds of the animals to tactile stimuli were measured using the Model 2290 Electrovonfrey anesthesiometer (IITC Life Science, Woodland Hills, Calif.) following the Hargreaves test. The animals were placed in an elevated Plexiglas enclosure set on a wire mesh surface. After 15 minutes of accommodation, a pre-calibrated Von Frey hair was applied perpendicularly to the plantar of the ipsilateral hind paws of the animals, with sufficient force, measured in grams, to elicit a crisp response of the paw. The response indicated a withdrawal from the painful stimulus and constituted the efficacy endpoint. […] This cut off force is used because it represent approximately 10% of the animals' body weight and it serves to prevent raising of the entire limb due to the use of stiffer hairs, which would change the nature of the stimulus. The data were expressed as percent increase from baseline threshold measured in grams.

The mark [1] stands for this setting: von Frey mechanical paw withdrawal threshold.
[2] abbreviates: von Frey mechanical paw withdrawal threshold, listed as (S)-enantiomer.

As for `O=C1N(Cc2ccc(C(F)(F)F)o2)c2ccccc2[C@]12COc1cc3c(cc12)OCO3` [(I-S), (S)-1′-{[5-(trifluoromethyl)furan-2-yl]methyl}spiro[furo[2,3-f][1,3]benzodioxole-7,3′-indol]-2′(1′H)-one], for the setting “oral dosing, 200 mg/Kg, compared with the other enantiomer”, the “maximal effect, reversal of pain response” value is “greater maximal effect”. Under setting [1], the “% Increase From Base Line, 1% topical” value is 0.62% and the “% Increase From Base Line, 8% topical” value is reported as 45.06%. Besides, under setting [2], the “% Increase From Base Line, 1% topical” value is on record as “did not demonstrate an observable increase” and the “% Increase From Base Line, 8% topical” value turned out to be 45.1%. In addition, the “% Increase From Base Line, 2% topical” value (von Frey mechanical paw withdrawal threshold, 2% (w/v) topical) turned out to be 16.71%. For the same compound, the “% Increase From Base Line, 4% topical” value (von Frey mechanical paw withdrawal threshold, 4% (w/v) topical) was 28.79%.
